{"source": "patent US20100324147A1", "about": "“ARYLCYCLOPROPYLAMINES AND METHODS OF USE” (priority 2009, published 2010)", "format_in_all_cases": "biochemical", "conditions_in_all_cases": "for Ki: inhibitor concentration that yields half the maximal rate of inactivation; for kinact: maximal rate of inactivation", "key": {"MAO A": {"molecular_target": "T1, MAO A (Homo sapiens, UniProt P21397)", "T1 sequence (P21397 1-527)": "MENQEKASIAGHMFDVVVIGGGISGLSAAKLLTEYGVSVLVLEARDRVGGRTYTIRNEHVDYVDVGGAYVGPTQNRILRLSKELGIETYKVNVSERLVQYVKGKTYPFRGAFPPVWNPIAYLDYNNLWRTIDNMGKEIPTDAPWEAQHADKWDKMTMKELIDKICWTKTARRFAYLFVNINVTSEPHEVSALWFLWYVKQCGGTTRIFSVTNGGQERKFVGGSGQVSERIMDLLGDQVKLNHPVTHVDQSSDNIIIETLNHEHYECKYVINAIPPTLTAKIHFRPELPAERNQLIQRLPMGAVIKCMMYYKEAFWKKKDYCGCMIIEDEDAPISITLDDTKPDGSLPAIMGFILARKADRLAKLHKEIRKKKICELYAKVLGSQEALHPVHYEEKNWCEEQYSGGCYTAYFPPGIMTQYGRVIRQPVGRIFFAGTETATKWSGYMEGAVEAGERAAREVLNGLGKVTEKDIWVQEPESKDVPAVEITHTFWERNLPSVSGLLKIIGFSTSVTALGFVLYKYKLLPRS", "test": "HRP-coupled amine oxidase assay, time-dependent inactivation of MAO A", "experimental": "(§1) For example, in vitro enzymatic assays may be performed in which hydrogen peroxide generated from reoxidation of the FAD cofactor by molecular oxygen by LSD1 or MAOs is monitored, e.g., using a horseradish peroxidase (HRP) coupled assay. The enzyme may be incubated with an appropriate peptide substrate that includes a dimethylated lysine residue, as well as an arylcyclopropylamine compound of the invention. A fluorogenic substrate may be included in the reaction, which upon reaction with H2O2 produced by the enzyme produces a fluorescent substrate that may be detected. Inhibition kinetics may then be determined by appropriate fitting of the data.\n(§2) The peroxide production generated from reoxidation of the FAD cofactor by molecular oxygen by LSD1 or MAOs was monitored using a horseradish peroxidase (HRP) coupled assay (FIG. 1). Amplex red was used as the fluorogenic electron acceptor and the fluorescence (excitation 560 nm, emission 590 nm) was measured using a Molecular Devices Spectra Max Gemini EM plate reader. The inhibition kinetics were determined by fitting the progress curves to eq. 1 describing time-dependent inactivation to determine kobs:\n(§3) product=(vi/kobs)(1−e^−k^obs^t) (1)\n(§4) where vi is the initial rate prior to inactivation, t is time and kobs is the observed rate of inactivation. The resulting values were plotted as a function of inhibitor concentration to obtain values of Ki and kinact according to eq. 2.\n(§5) where kinact is the maximal rate of inactivation and Ki is the inhibitor concentration that yields half that rate of inactivation."}, "LSD1": {"molecular_target": "LSD1 (Homo sapiens, UniProt O60341)", "test": "HRP-coupled amine oxidase assay, time-dependent inactivation of LSD1", "experimental": "as §1\nThe C-terminal GYG was added to allow for quantification of the peptide concentration.\nas §2, §3, §4, §5"}, "MAO B": {"molecular_target": "T2, MAO B (Homo sapiens, UniProt P27338)", "T2 sequence (P27338 1-520)": "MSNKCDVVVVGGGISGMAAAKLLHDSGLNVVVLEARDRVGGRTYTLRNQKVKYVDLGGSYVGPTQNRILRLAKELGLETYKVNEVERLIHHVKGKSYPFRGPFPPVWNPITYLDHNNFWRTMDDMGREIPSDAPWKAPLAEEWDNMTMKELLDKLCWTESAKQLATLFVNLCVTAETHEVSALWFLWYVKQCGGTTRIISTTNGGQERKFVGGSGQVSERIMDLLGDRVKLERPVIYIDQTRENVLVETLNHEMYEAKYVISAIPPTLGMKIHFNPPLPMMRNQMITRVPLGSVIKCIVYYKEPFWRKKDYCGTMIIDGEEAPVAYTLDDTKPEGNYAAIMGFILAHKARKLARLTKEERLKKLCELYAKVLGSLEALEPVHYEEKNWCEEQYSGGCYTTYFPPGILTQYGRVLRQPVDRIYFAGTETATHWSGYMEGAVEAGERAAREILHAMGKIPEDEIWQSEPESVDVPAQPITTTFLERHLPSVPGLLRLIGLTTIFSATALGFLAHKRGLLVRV", "test": "HRP-coupled amine oxidase assay, time-dependent inactivation of MAO B", "experimental": "as §1, §2, §3, §4, §5"}}, "data": [{"smiles": "CC(C)Oc1ccc(C2CC2N)cc1", "note": "(stereo not shown) [compound 2]", "values": [{"measurement": "kinact/KI", "setting": "MAO A", "result": 1320, "unit": "M⁻¹ s⁻¹"}, {"measurement": "Ki", "setting": "MAO A", "result": "19.7 ± 4.6", "unit": "µM"}, {"measurement": "kinact", "setting": "MAO A", "result": "0.026 ± 0.002", "unit": "s⁻¹"}, {"measurement": "kinact/KI", "setting": "LSD1", "result": 54, "unit": "M⁻¹ s⁻¹"}, {"measurement": "Ki", "setting": "LSD1", "result": "352 ± 76", "unit": "µM"}, {"measurement": "kinact", "setting": "LSD1", "result": "0.0192 ± 0.0017", "unit": "s⁻¹"}, {"measurement": "kinact/KI", "setting": "MAO B", "result": 383, "unit": "M⁻¹ s⁻¹"}, {"measurement": "Ki", "setting": "MAO B", "result": "106 ± 20", "unit": "µM"}, {"measurement": "kinact", "setting": "MAO B", "result": "0.046 ± 0.006", "unit": "s⁻¹"}]}, {"smiles": "NC1CC1c1ccc(Oc2ccccc2)cc1", "note": "(stereo not shown) [compound 3]", "values": [{"measurement": "kinact/KI", "setting": "MAO A", "result": 5720, "unit": "M⁻¹ s⁻¹"}, {"measurement": "Ki", "setting": "MAO A", "result": "12.4 ± 4.3", "unit": "µM"}, {"measurement": "kinact", "setting": "MAO A", "result": "0.071 ± 0.007", "unit": "s⁻¹"}, {"measurement": "kinact/KI", "setting": "MAO B", "result": 1100, "unit": "M⁻¹ s⁻¹"}, {"measurement": "Ki", "setting": "MAO B", "result": "29.5 ± 4.4", "unit": "µM"}, {"measurement": "kinact", "setting": "MAO B", "result": "0.0623 ± 0.0018", "unit": "s⁻¹"}]}, {"smiles": "NC1CC1c1cccc(OCc2ccccc2)c1", "note": "(stereo not shown) [compound 4]", "values": [{"measurement": "kinact/KI", "setting": "LSD1", "result": 33, "unit": "M⁻¹ s⁻¹"}, {"measurement": "Ki", "setting": "LSD1", "result": "760 ± 280", "unit": "µM"}]}, {"smiles": "CC(C)(C)c1ccc(Sc2ccc(C3CC3N)cc2)cc1", "note": "(stereo not shown) [compound 5]", "values": [{"measurement": "kinact/KI", "setting": "LSD1", "result": 40, "unit": "M⁻¹ s⁻¹"}, {"measurement": "kinact", "setting": "LSD1", "result": "0.0215 ± 0.003", "unit": "s⁻¹"}]}, {"smiles": "CCOc1ccc(C2CC2N)cc1", "note": "(stereo not shown) [compound 1]", "values": [{"measurement": "kinact/KI", "setting": "MAO A", "result": 3140, "unit": "M⁻¹ s⁻¹"}, {"measurement": "Ki", "setting": "MAO A", "result": "4.3 ± 0.8", "unit": "µM"}, {"measurement": "kinact", "setting": "MAO A", "result": "0.0135 ± 0.0004", "unit": "s⁻¹"}, {"measurement": "kinact/KI", "setting": "LSD1", "result": 45, "unit": "M⁻¹ s⁻¹"}, {"measurement": "Ki", "setting": "LSD1", "result": "456 ± 86", "unit": "µM"}, {"measurement": "kinact", "setting": "LSD1", "result": "0.0204 ± 0.0018", "unit": "s⁻¹"}, {"measurement": "kinact/KI", "setting": "MAO B", "result": 762, "unit": "M⁻¹ s⁻¹"}, {"measurement": "Ki", "setting": "MAO B", "result": "63 ± 10", "unit": "µM"}, {"measurement": "kinact", "setting": "MAO B", "result": "0.048 ± 0.004", "unit": "s⁻¹"}]}]}
